The source of these data is ChEMBL document CHEMBL4834480, “Discovery of 3,5-Dimethyl-4-Sulfonyl-1H-Pyrrole-Based Myeloid Cell Leukemia 1 Inhibitors with High Affinity, Selectivity, and Oral Bioavailability” (J Med Chem, 2021).

Assay [1] addresses T1, Induced myeloid leukemia cell differentiation protein Mcl-1 (Homo sapiens, UniProt Q07820). Nature of the assay: Inhibition of FITC-labeled Bak BH3 peptide binding to GST-tagged MCL1 (171 to 327 residues) (unknown origin) expressed in Escherichia coli BL21 (DE3) incubated for 30 mins fluorescence polarization-based competitive binding assay.
In assay [2] the target is T1, Induced myeloid leukemia cell differentiation protein Mcl-1. Briefly: Inhibition of FITC-labeled Bak BH3 peptide binding to GST-tagged MCL1 (171 to 327 residues) (unknown origin) expressed in Escherichia coli BL21 (DE3) at 30 uM incubated for 30 mins fluorescence polarization-based competitive binding assay relative to control.
For another assay, the system named is SK-BR-3. Briefly: Antiproliferative activity against human SK-BR-3 cells assessed as decrease in cell viability measured after 72 hrs by MTT assay. The format is functional, cell-based. The conditions noted are these: SK-BR-3, 72 h.
In a further assay the test system is NCI-H23. Briefly: Antiproliferative activity against human NCI-H23 cells assessed as decrease in cell viability measured after 72 hrs by MTT assay. Format: functional, cell-based. The conditions noted are these: NCI-H23, 72 h.
Assay [3] concerns MV4-11. Nature of the assay: Antiproliferative activity against human MV4-11 cells assessed as decrease in cell viability measured after 72 hrs by MTT assay. The conditions noted are these: MV4-11, 72 h. Format: functional, cell-based.
For assay [4], the system named is NCI-H929. Briefly: Antiproliferative activity against human NCI-H929 cells assessed as decrease in cell viability measured after 72 hrs by MTT assay. The format is functional, cell-based. The conditions noted are these: NCI-H929, 72 h.
In assay [5] the test system is K562. Briefly: Antiproliferative activity against human K562 cells assessed as decrease in cell viability measured after 72 hrs by MTT assay. The format is functional, cell-based. The conditions noted are these: K562, 72 h.
Assay [6] relates to MV4-11. Briefly: Induction of apoptosis in human MV4-11 cells xenografted in BALB/c nude mouse assessed as induction of PARP cleavage at 10 mg/kg, ip administered every two days for 14 days by Western blot analysis. The format is functional, organism-based. The conditions noted are these: time 14.0 day.
In assay [7] the test system is MV4-11. Briefly: Antitumor activity against human MV4-11 cells xenografted in BALB/c nude mouse assessed as tumor growth inhibition by measuring T/C ratio at 10 mg/kg, ip administered every two days for 14 days relative to control. Format: functional. The conditions noted are these: time 14 day.
In assay [8] the target is T2, Bcl-2-related protein A1 (Homo sapiens) (UniProt Q16548).
T2 sequence (whole entry): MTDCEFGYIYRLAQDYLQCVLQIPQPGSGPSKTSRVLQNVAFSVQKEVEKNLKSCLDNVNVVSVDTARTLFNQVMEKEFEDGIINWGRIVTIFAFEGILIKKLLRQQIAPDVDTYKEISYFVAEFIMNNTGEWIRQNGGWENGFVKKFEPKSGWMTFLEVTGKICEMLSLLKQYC
Briefly: Inhibition of FITC-labeled Bak BH3 peptide binding to GST-tagged BFL1 (1 to 151 residues) (unknown origin) expressed in Escherichia coli BL21 (DE3) at 10 uM incubated for 30 mins fluorescence polarization-based competitive binding assay relative to control.

Assay [9] has as its target Apoptosis regulator Bcl-2 (Homo sapiens, UniProt P10415). Briefly: Inhibition of FITC-labeled Bak BH3 peptide binding to GST-tagged BCL2 (1 to 205 residues) (unknown origin) expressed in Escherichia coli BL21 (DE3) at 10 uM incubated for 30 mins fluorescence polarization-based competitive binding assay relative to control.
The next assay addresses Bcl-2-like protein 1 (Homo sapiens, UniProt Q07817). Briefly: Inhibition of BCL-XL(unknown origin) at 10 uM incubated for 120 mins by TR-FRET assay relative to control.
For assay [10], the system named is NCI-H929. Nature of the assay: Induction of apoptosis in human NCI-H929 cells assessed as upregulation of cleaved PARP measured after 48 hrs by Western blot analysis. The format is functional, cell-based. The conditions noted are these: dose microM <=5, time 48.0 hrs.
In assay [11] the test system is K562. Nature of the assay: Induction of apoptosis in human K562 cells assessed as activation of caspase 3 up to 5 uM after 4 hrs by luminescence based microplate reader assay. The conditions noted are these: dose microM <=5, time 4.0 hrs. Format: functional, cell-based.
Assay [12] concerns NCI-H929. Nature of the assay: Induction of apoptosis in human NCI-H929 cells measured after 48 hrs by annexinV-FITC/propidium iodide staining based flow cytometry analysis. The format is functional, cell-based. The conditions noted are these: dose 1-5 µM.
Assay [13] concerns K562. Nature of the assay: Induction of apoptosis in human K562 cells assessed as activation of caspase 7 up to 5 uM after 4 hrs by luminescence based microplate reader assay. The format is functional, cell-based. The conditions noted are these: dose microM <=5, time 4.0 hrs.
Assay [14] concerns K562. Briefly: Induction of apoptosis in human K562 cells assessed as upregulation of cleaved PARP up to 5 uM measured after 48 hrs by Western blot analysis. The conditions noted are these: dose microM <=5, time 48.0 hrs. Format: functional, cell-based.

Calls of active or inactive are those of the source. The rule behind the calls is not given here. A value given as a limit tells only on which side of the number the result lay.

Bcl-2-like protein 1, sequence (Q07817 whole entry): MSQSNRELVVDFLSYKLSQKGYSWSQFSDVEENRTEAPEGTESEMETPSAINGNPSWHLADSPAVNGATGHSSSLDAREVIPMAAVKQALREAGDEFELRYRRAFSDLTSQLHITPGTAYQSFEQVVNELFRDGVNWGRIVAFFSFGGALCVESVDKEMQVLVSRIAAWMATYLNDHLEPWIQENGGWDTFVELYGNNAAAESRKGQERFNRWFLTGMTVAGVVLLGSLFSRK
Apoptosis regulator Bcl-2, sequence (P10415 whole entry, the tested form may be a part): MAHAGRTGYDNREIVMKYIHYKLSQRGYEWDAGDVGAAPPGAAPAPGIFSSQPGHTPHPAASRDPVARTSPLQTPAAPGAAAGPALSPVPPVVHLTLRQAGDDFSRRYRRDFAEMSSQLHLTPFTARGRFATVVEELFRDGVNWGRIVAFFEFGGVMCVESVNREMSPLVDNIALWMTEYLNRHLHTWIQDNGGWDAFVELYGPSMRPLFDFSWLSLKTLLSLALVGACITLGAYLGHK
T1 sequence (Q07820 whole entry, the tested form may be a part): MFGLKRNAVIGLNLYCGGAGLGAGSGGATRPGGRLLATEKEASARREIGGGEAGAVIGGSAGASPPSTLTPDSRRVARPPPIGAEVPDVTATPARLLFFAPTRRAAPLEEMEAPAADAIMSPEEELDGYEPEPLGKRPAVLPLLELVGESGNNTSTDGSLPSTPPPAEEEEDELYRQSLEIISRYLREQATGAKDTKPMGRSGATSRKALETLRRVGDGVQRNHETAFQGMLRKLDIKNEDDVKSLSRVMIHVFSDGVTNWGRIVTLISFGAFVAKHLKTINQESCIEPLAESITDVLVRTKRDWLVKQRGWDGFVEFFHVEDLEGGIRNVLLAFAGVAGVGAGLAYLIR

In assay [1], `Cc1ccc(Cc2cc(C(=O)O)n(CCCOc3cc(C)c(Cl)c(C)c3)c2)cc1` displayed a Ki of 5.34 µM. Also, in assay [2], the inhibition was determined as 53%.
On to `Cc1cc(OCCCn2c(C)c(S(=O)(=O)c3ccc(O)cc3)c(C)c2C(=O)O)cc(C)c1Cl`, for which the Ki in assay [1] amounted to 0.018 µM. Further, the IC50 with SK-BR-3 stood at 7.02 µM; in the assay with NCI-H23, 2.16 µM; in the assay with MV4-11 [3], 2.02 µM; in the assay with NCI-H929 [4], 1.39 µM; in the assay on K562 [5] it was 14.8 µM.
Consider `Cc1c2c(nn1C)CSCc1cc(n(C)n1)CSc1cc(c3ccccc3c1)OCCCc1c(C(=O)O)n(C)c3c-2c(Cl)ccc13` [AZD-5991], for which the IC50 came out at 30 µM in the assay with SK-BR-3; 0.19 µM with NCI-H23; 0.024 µM with MV4-11 [3]; 0.036 µM in the assay on NCI-H929 [4]; 29.6 µM in the assay on K562 [5]. Moreover, the result in the assay with MV4-11 [6] was Active. Also, the T/C in the assay on MV4-11 [7] amounted to 5.18%.
`CCc1ccc(S(=O)(=O)c2c(C)c(C(=O)O)n(CCCOc3cc(C)c(Cl)c(C)c3)c2C)cc1`: in [1], affinity was put at a Ki of 0.07 µM. Further, the IC50 was 3.92 µM with SK-BR-3; 5.41 µM with NCI-H23; 2.59 µM with MV4-11 [3]; 0.49 µM with NCI-H929 [4]; above 30 µM in the assay on K562 [5]. Besides, the inhibition in assay [8] was 8.77%; in [9], 12.4%; on Bcl-2-like protein 1, 36%.
For `Cc1nn(C)c(COc2ccc(N3CCN(S(=O)(=O)N(C)C)CC3)cc2)c1-c1cccc2c(CCCOc3cccc4ccccc34)c(C(=O)O)n(CCN3CCOCC3)c12`, in [1], the affinity corresponds to a Ki of 0.006 µM. Moreover, the Activity result with NCI-H929 [10] and with NCI-H929 [12] was “Dose-Dependent Effect” throughout. Further, the IC50 in the assay with SK-BR-3 is 4.31 µM; in the assay with NCI-H23 it was 13.5 µM; in the assay on MV4-11 [3], 1.55 µM; with NCI-H929 [4], 0.9 µM; in the assay on K562 [5], above 30 µM. Besides, the outcome with K562 [11], in the assay with K562 [13] and with K562 [14] was inactive.
In turn, `COc1ccc(S(=O)(=O)c2c(C)c(C(=O)O)n(CCCOc3cc(C)c(Cl)c(C)c3)c2C)cc1` yielded an inhibitory constant (Ki) in assay [1] of 0.07 µM. In addition, the IC50 is 6.27 µM in the assay with SK-BR-3; 9.72 µM in the assay on NCI-H23; 1.56 µM in the assay with MV4-11 [3]; 0.39 µM in the assay on NCI-H929 [4]; above 30 µM in the assay with K562 [5]. Besides, the inhibition in assay [8] came out at 1.82%; in assay [9], 14.2%; at Bcl-2-like protein 1 it was 27%.
In turn, `Cc1cc(OCCCn2c(C)c(S(=O)(=O)c3ccc(Br)cc3)c(C)c2C(=O)O)cc(C)c1Cl` came in with a Ki in assay [1] of 0.04 µM. Moreover, the IC50 was 5.6 µM in the assay with SK-BR-3; 3.84 µM with NCI-H23; 1.7 µM in the assay on MV4-11 [3]; 0.48 µM in the assay on NCI-H929 [4]; above 30 µM in the assay on K562 [5]. In addition, the inhibition in assay [8] amounted to 4.14%; in assay [9] it was 11.6%; against Bcl-2-like protein 1, 13%.
In the case of `CCOc1ccc(S(=O)(=O)c2c(C)c(C(=O)O)n(CCCOc3cc(C)c(Cl)c(C)c3)c2C)cc1`, the affinity in assay [1] corresponds to a Ki of 0.14 µM.
As for `Cc1cc(OCCCn2c(C)c(S(=O)(=O)c3ccc(C(=O)c4ccccc4)cc3)c(C)c2C(=O)O)cc(C)c1Cl`, in assay [1], the Ki turned out to be 0.38 µM.
For the compound `Cc1cc(OCCCn2c(C)c(S(=O)(=O)c3ccccc3O)c(C)c2C(=O)O)cc(C)c1Cl`, the Ki in assay [1] came out at 0.15 µM.
As for `Cc1cc(OCCCn2c(C)c(S(=O)(=O)c3cccs3)c(C)c2C(=O)O)cc(C)c1Cl`, the Ki in assay [1] amounted to 0.08 µM. Also, the IC50 was 5.13 µM in the assay on SK-BR-3; 3.1 µM with NCI-H23; 2.3 µM in the assay with MV4-11 [3]; 0.7 µM in the assay on NCI-H929 [4]; 11.3 µM in the assay on K562 [5]. For the same compound, the inhibition was found to be 7.54% in assay [9] and 37% at Bcl-2-like protein 1.
In [1], `Cc1cc(OCCCn2c(C)c(S(=O)(=O)c3c(C)cccc3C)c(C)c2C(=O)O)cc(C)c1Cl` had a Ki above 10 µM.
Still for that read-out and setting: next, `COc1ccccc1S(=O)(=O)c1c(C)c(C(=O)O)n(CCCOc2cc(C)c(Cl)c(C)c2)c1C`: 0.43 µM; `COc1cccc(S(=O)(=O)c2c(C)c(C(=O)O)n(CCCOc3cc(C)c(Cl)c(C)c3)c2C)c1`: 0.2 µM; `Cc1cc(OCCCn2c(C)c(S(=O)(=O)c3ccc(C(C)C)cc3)c(C)c2C(=O)O)cc(C)c1Cl`: 0.17 µM.
`Cc1ccc(S(=O)(=O)c2cn(CCCOc3cc(C)c(Cl)c(C)c3)c(C(=O)O)c2C)cc1`: the Ki in assay [1] amounted to 0.81 µM.
In turn, `CC(=O)c1ccccc1S(=O)(=O)c1c(C)c(C(=O)O)n(CCCOc2cc(C)c(Cl)c(C)c2)c1C` had a Ki in assay [1] of 0.5 µM.
